# Experiments:
# Splenic murine T cells = assay: aCD3/aCD28 stimulation of murine T cells in presence of UA, flow cytometry; format: cell-based
# Protocol: Mitochondrial remodelling has been previously associated with alterations in T cell fate (Buck et al., 2016; Yu et al., 2020b). Given the observed dependency of the UA effect on CD8^+ T cells, the inventors wondered whether UA may also directly affect T cell fate commitment. Purified T cells from FVB mice were stimulated with aCD3/aCD28 beads to induce T cell differentiation into effector T cell subsets in the presence or absence of UA for up to 72 hours (FIG. 2A). […] Previously, a rare naïve-like subset of T cells with enhanced stemness capabilities, termed T memory stem cells (TSCM) has been identified (Gattinoni et al., 2009). TSCM are marked by extreme longevity, their ability to self-renew, and potential for immune reconstitution (Gattinoni et al., 2017) which translates into potent anti-tumor immunity. Phenotypically, TSCM represent a subset of minimally differentiated T cells, which share a CD44^loCD62L^hi phenotype with naïve T cells, but are phenotypically distinct by expressing high levels of Sca1 (Gattinoni et al., 2009). […] This was associated with reduced cyclin D1 expression (not shown), in line with previous observations that link TSCM reprogramming to halted proliferation (Gattinoni et al., 2009; Verma et al., 2021).
# (§1) Splenic murine T cells were isolated from mice aged 6-20 weeks by negative selection with EasySep mouse T cell isolation kit (Stem cell) according to the manufacturer's instructions. To monitor T cell proliferation, purified T cells were loaded with CellTrace Violet (C34557 ThermoFisher Scientific). T cell activation was initiated using αCD3/CD28 activation beads (11456D; ThermoFisher Scientific) at a ratio of 25 μl dynabeads per 0.5×10^6 T-cells. Cells were activated with 25-50 μM Urolithin A (Tocris) or DMSO in T cell activation Medium (RPMI (ThermoFisher Scientific) 10% FBS (South America origin), 10 mM Hepes (Sigma), 1× Non-Essential Amino Acid, 1 mM Sodium Pyruvate, 50 μM B-Mercaptoethanol, 100 U/ml penicillin, 100 μg/ml streptomycin and 2 mM Glutamax (ThermoFisher Scientific) for the indicated durations. In selected experiments, cells were stimulated in the presence of inhibitors, namely TCF1i (ICG-001; SelleckChem; 10 μM) and PGC-1αi (SR-18292, Sigma-Aldrich; 10 μm,). For subsequent analysis, activating beads were magnetically removed prior antibody staining. For human T cells, peripheral blood mononuclear cells were purified with a Ficoll-Paque (GE healthcare) gradient. T cells were enriched with EasySep Human T Cell Isolation Kit (StemCell) and activated with dynabead Human T-Activator CD3/CD28 for T Cell Expansion and Activation Kit (11131D; ThermoFisher Scientific), similar to murine T cell stimulation. […]
# For flow cytometric analysis of mitochondria and lysosomes 500 μl of Mitotracker Red (200 nM; ThermoFisher) or Lysotracker Red DND-99 (75 nM; ThermoFisher) were applied followed by surface staining. To study changes in mitochondrial membrane potential, Mitoprobe TMRM kit (ThermoFisher) was used according to the manufacturer's instructions. Cell proliferation was assessed by CellTrace Violet (Invitrogen, C34557) at a concentration of 5 μM according to manufacturer's instructions. For human samples, cells were stained as described above with Fixable Viability Dye-eF780, αCD95-BV421 (DX2; 562616), αCD62L-PE (DREG-56; 555544), αCCR7-AF700 (150503; 561143), αCD45RO-APC (UCHL; 559865), αCD45RA-FITC (HI100; 555488), αCD8-PE-CF594 (RPA-T8; 562282) and αCD4-BV786 (OKT4; 566806) from BD.
# human CD3^+ T cells = assay: aCD3/aCD28 stimulation of human T cells in presence of UA; format: cell-based
# Text: Finally, the inventors aimed to determine whether UA causes expansion of TSCM cells in human CD8^+ T cells. The inventors isolated human CD3^+ T cells from PBMCs of healthy donors and stimulated them with aCD3/aCD28 beads in vitro in the presence of UA (FIG. 6A). Indeed, UA increased the frequency of human TSCM cells based on the expression of CD45RA^+CCR7^HiCD62L^+CD95^+CD8^+ in five out of five individual donors (FIG. 6B).
# as §1, with “gradient.” for “gradient. T cells were enriched with EasySep Human T Cell Isolation Kit (StemCell) and activated with dynabead Human T-Activator CD3/CD28 for T Cell Expansion and Activation Kit (11131D; ThermoFisher Scientific), similar to murine T cell stimulation.”
# For flow cytometric analysis of mitochondria and lysosomes 500 μl of Mitotracker Red (200 nM; ThermoFisher) or Lysotracker Red DND-99 (75 nM; ThermoFisher) were applied followed by surface staining. […] Cell proliferation was assessed by CellTrace Violet (Invitrogen, C34557) at a concentration of 5 μM according to manufacturer's instructions. […]
# APTK organoids = assay: APTK tumor organoids incubated with UA, flow cytometry
# APTK-s.c. tumors = assay: subcutaneous APTK tumors, UA-supplemented diet; format: in vivo, C57BL/6 mice
# [1] = 48 hours in presence of UA, prior to ACT
# [2] = CD62L+CD44-CD8+ T cells, 48 h, UA 25 μM
# [3] = increasing concentrations of UA (25-50 μM)
compound,measurement,setting,value
"O=c1oc2cc(O)ccc2c2ccc(O)cc12 [UA, Urolithin A]","TSCM formation, dependence on T cell activation",Splenic murine T cells,only formed in activated T cells
same,cyclin D1 expression,Splenic murine T cells,reduced
same,lysosome formation in CD8+ T cells,"Splenic murine T cells; 6 h, UA 50 μM",enhanced
same,"loss of mitochondrial content in T cell subsets (TSCM, TCM and TEFF)",Splenic murine T cells; 24 h,detected in all T cell subsets analyzed
same,number of CD44-CD62L+Sca1hi TSCM,"Splenic murine T cells; 24 h, 48 h and 72 h after aCD3/aCD28 stimulation",significantly increased
same,CD95 expression of CD8+ T cells from OT-1 donors,Splenic murine T cells; [1],enhanced
same,TSCM phenotype of CD8+ T cells from OT-1 donors,Splenic murine T cells; [1],displayed a TSCM phenotype
same,TSCM formation in CD4+ cells,Splenic murine T cells; CD4+ cells,did not promote enhanced TSCM formation
same,frequency of TEM cells in CD4+ cells,"Splenic murine T cells; CD4+ cells, later timepoints",enhanced frequency
same,naïve-like CD4+ cells,"Splenic murine T cells; CD4+ cells, later timepoints",less
same,CD95 expression of TSCM,Splenic murine T cells; [2],increased
same,mitochondrial membrane potential of TSCM (TMRM),Splenic murine T cells; [2],reduced
same,CD8+ T cell division,Splenic murine T cells; CellTrace Violet,restricted
same,"differentiation into effector T cells (Granzyme B, IFNg expression)","Splenic murine T cells; T cells from FVB mice, aCD3/aCD28 beads, 48 h, UA vs DMSO",blocked
same,central memory cells (TCM),"Splenic murine T cells; aCD3/aCD28, up to 72 hours",reduction
same,frequency of effector memory cells (TEM),"Splenic murine T cells; aCD3/aCD28, up to 72 hours",remained unaltered
same,naïve CD44loCD62Lhi T cells,"Splenic murine T cells; aCD3/aCD28, up to 72 hours",significant increase
same,mitochondrial content (MitoTracker Red) in CD8+ T cells,Splenic murine T cells; after 24 hours,loss of mitochondrial content in a dose-dependent manner
same,T cell death in vitro,Splenic murine T cells; in vitro,dose-dependent T cell death
same,PGC-1 expression in CD8+ T cells,"Splenic murine T cells; prolonged UA administration in vitro, 48 h, 50 μM",marked upregulation
same,mitochondrial membrane potential in CD8+ T cells,"Splenic murine T cells; within six hours, UA 50 μM",reduction
same,frequency of human TSCM cells (CD45RA+CCR7HiCD62L+CD95+CD8+),"human CD3^+ T cells; 48 h, UA 50 μM, five out of five individual donors",increased
same,TCF1 expression in human CD8+ T cells,"human CD3^+ T cells; 48 h, intracellular staining",increased
same,mitochondrial membrane potential of human CD8+ T cells,human CD3^+ T cells; after 48 hours,decreased
same,MHC-I (antigen presentation),"APTK organoids; UA 25-50 μM, 48 h",marked upregulation
same,MitoTracker staining,APTK organoids; [3],concomitant loss
same,formation of lysosomes (lysotracker),APTK organoids; [3],dose-dependent formation
same,"tumor growth, UA diet combined with PD-1 blockade",APTK-s.c. tumors; UA-containing food + a-PD-1,sensitized APTK tumors to PD-1 blockade
same,tumor growth,APTK-s.c. tumors; UA-supplemented diet from day 11 after tumor injection vs control food,significantly reduced
